Laboratory results as given in ChEMBL document CHEMBL1166012, “New aryldithiolethione derivatives as potent histone deacetylase inhibitors” (Bioorg Med Chem, 2010).

Assays:
Histone deacetylase = experiment: Inhibition of HDAC in human HeLa cells extracts after 60 mins by fluorescence assay; type: cell-based
A549 = experiment: Antiproliferative activity against human A549 cells after 48 hrs; type: functional, cell-based; conditions: A549, 48 h

Compound	IC50 (Histone deacetylase) [µM]	IC50 (A549) [µM]
O=C(CCCCOc1ccc(-c2cc(=S)ss2)cc1)Nc1ccccc1	50	> 1000
O=C(CCCCCCC(=O)Oc1ccc(-c2cc(=S)ss2)cc1)Nc1ccccc1	100	> 1000
O=C(O)c1ccc(-c2cssc2=S)cc1	100	103
COc1cc(-c2cc(=S)ss2)ccc1OCC(=O)O	82.85	880
O=C(O)c1csc(=S)s1 [ACS 5]	46.4	> 1000

Now those with a lower IC50 (A549), led by results:

IC50 (Histone deacetylase) [µM]	IC50 (A549) [µM]	Compound
0.01	6.1	O=C(CCCCCCOc1ccc(-c2cc(=S)ss2)cc1)NO
10	56	O=C(CCCCCCC(=O)Oc1ccc(-c2cc(=S)ss2)cc1)NO
918.7	60.2	O=C(CCCCCCOc1ccc(-c2cc(=S)ss2)cc1)Nc1ccccc1
1.19	1.68	O=C(CCCCCCC(=O)Nc1ccccc1)NOC(=O)c1ccc(-c2cssc2=S)cc1
0.25	3.4	O=C(CCCCCCC(=O)Nc1ccccc1)NOC(=O)c1csc(=S)s1
0.08	5.4	O=C(CCCCOc1ccc(-c2cc(=S)ss2)cc1)NO
32	31.7	Nc1ccccc1NC(=O)CCCCCCOc1ccc(-c2cc(=S)ss2)cc1
